The values below come from patent US20040127518A1, “Modulation of anxiety through blockade of anandamide hydrolysis” (priority 2002, published 2004).

Data set [1] addresses horse plasma butyryl cholinesterase (Equus caballus, UniProt P81908). Description: Cholinesterase assay with commercial kit, purified enzyme.
Description: (§4) We prepared cell fractions from rat brain homogenates, and assayed membrane FAAH activity and cytosol MGL activity using anandamide [ethanolamine-3H] (American Radiolabeled Chemicals, ARC (St. Louis Mo.), 60 Ci/mmol) and 2-mono-oleoyl-glycerol-[glycerol-1,2,3^−3H] (ARC, St. Louis Mo., 20 Ci/mmol), respectively, as substrates (Dinh, T. Proc. Natl. Acad. Sci. U.S.A. (2002)). We conducted [^3H]anandamide transport assays in human astrocytoma cells (Piomelli, D. et al., Proc. Natl. Acad. Sci. U.S.A., 96, 5802-5807 (1999)); CB1 and CB2 binding assays in rat cerebellar membranes and CB2-overexpressing Chinese hamster ovary cells (Receptor Biology-Perkin Elmer, Wellesley, Mass.), respectively, using [^3H]WIN-55212-2 (NEN-Dupont, Boston, Mass., 40-60 Ci/mmol) as a ligand (Devane, W. A. et al. Science, 258, 1946-1949 (1992)); cholinesterase assays with a commercial kit (Sigma, St. Louis, Mo.), using purified enzymes (electric eel acetylcholinesterase type V-S and horse serum cholinesterase; both from Sigma, St. Louis, Mo.) and following manufacturer's instructions.
A further data set can be described thus: Elevated zero maze test. To be noted: adult rats; i.p. 30 min before test; UCM532 5 and 10 mg kg-1; UCM597 0.05-0.1 mg kg-1. In kind it is in vivo, rat. The method, then:
We dissolved FAAH inhibitors and rimonabant in dimethylsulfoxide (DMSO)/saline (7/3 and 9/1, respectively); we administered FAAH inhibitors by i.p. injection 30 min before tests and rimonabant 30 min before UCM532. The elevated zero maze was comprised of a black Perspex annular platform (105 cm diameter, 10 cm width) elevated to 65 cm above ground level, divided equally into four quadrants (Bickerdike, M. J. et al., Eur. J. Pharmacol., 271, 403-411 (1994); Shepherd, J. K. et al., Psychopharmacology, 116, 56-64 (1994)). […] We placed the rats in a closed quadrant and video recorded them for 5-min periods, thoroughly cleaning the maze between sessions. […] Results are expressed as percent time in open quadrant/total time (percent time open). Results were analyzed by one-way ANOVA followed by Tukey's test. We recorded motor activity of each rat in an Opto-Varimex cage (Columbus Instruments, Columbus, Ohio) linked on-line to a computer and placed in a sound-attenuated room illuminated by a 20-W white light. The amount of time spent in ambulatory activity was analyzed using an Auto-Track software (Columbus Instruments, Columbus, Ohio) as described elsewhere (Ali, M. M. et al., Neurosci. Lett., 284, 57-60 (2000); Wedzony, K. et al., Neuropsychopharmacology, 23, 547-559 (2000)). […] We analyzed data by overall one-way ANOVA followed by Tukey's test for individual between-group comparisons. […]

A short description of the next data set: Mouse hot-plate test. To be noted: 0.5 mg kg-1 i.p., 60 min before test. In kind it is in vivo. The method, then: (§1) We dissolved FAAH inhibitors in polyethyleneglycol/water (1/1) and rimonabant in saline. Formalin and hot-plate assays were carried out in the mouse, as described (Beltramo, M. et al., FEBS Lett., 403, 263-267 (1997)).
(§2) The compounds exerted, however, moderate antinociceptive effects in two models of acute pain.

Data set [2] concerns brain content of anandamide, other fatty acid ethanolamides and 2-AG. In words: Brain levels of fatty acid ethanolamides and 2-AG by HPLC/MS. In kind it is in vivo, rat. To be noted: 0.3 mg kg-1 i.p., 2 h after injection. An excerpt: We extracted lipids from tissues with a methanol-chloroform mixture and fractionated them by silica gel column chromatography (Giuffrida, A. et al., Anal. Biochem., 280, 87-93 (2000)). Anandamide and other fatty acid derivatives were quantified by HPLC/MS, using an isotope dilution method (Giuffrida, A. et al., Anal. Biochem., 280, 87-93 (2000)).

Data set [3] in a line: Body temperature (rectal probe). In kind it is in vivo. An excerpt: (§3) We dissolved all compounds in saline/Tween 80/polyethylenglycol (90/5/5) and administered them by i.p. injection immediately before tests. We measured body temperature with a rectal probe (Type T, Copper-Costantan Thermocouple-Physitemp Instruments INC, Clifton, N.J.) connected to a digital thermometer (model BAT-12 Physitemp Instruments INC, Clifton, N.J.); and catalepsy using the procedure described in Tseng and Craft (Tseng, A. H. et al., Eur. J. Pharmacol., 430, 41-47 (2001)).

The next data set addresses CB2 receptor (Homo sapiens, UniProt P34972). Description: CB2 binding assay in CB2-overexpressing Chinese hamster ovary cells, [3H]WIN-55212-2.
The target in data set [4] is T1, rat brain monoglyceride lipase (MGL) (Rattus norvegicus, UniProt Q8R431).
T1 sequence (Q8R431 1-303): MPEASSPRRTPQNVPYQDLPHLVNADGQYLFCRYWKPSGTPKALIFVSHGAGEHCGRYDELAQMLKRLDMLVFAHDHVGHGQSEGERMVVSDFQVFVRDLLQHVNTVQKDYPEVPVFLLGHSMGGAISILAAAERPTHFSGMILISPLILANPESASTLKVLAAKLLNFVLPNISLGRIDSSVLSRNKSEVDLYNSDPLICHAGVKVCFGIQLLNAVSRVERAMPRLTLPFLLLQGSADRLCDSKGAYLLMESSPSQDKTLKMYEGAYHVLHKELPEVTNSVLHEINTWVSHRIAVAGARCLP
Description: Cytosol MGL activity, 2-mono-oleoyl-glycerol as substrate.
Description: as §4

In data set [5] the target is electric eel acetylcholinesterase (Electrophorus electricus, UniProt O42275).
Chain of electric eel acetylcholinesterase (O42275 whole entry): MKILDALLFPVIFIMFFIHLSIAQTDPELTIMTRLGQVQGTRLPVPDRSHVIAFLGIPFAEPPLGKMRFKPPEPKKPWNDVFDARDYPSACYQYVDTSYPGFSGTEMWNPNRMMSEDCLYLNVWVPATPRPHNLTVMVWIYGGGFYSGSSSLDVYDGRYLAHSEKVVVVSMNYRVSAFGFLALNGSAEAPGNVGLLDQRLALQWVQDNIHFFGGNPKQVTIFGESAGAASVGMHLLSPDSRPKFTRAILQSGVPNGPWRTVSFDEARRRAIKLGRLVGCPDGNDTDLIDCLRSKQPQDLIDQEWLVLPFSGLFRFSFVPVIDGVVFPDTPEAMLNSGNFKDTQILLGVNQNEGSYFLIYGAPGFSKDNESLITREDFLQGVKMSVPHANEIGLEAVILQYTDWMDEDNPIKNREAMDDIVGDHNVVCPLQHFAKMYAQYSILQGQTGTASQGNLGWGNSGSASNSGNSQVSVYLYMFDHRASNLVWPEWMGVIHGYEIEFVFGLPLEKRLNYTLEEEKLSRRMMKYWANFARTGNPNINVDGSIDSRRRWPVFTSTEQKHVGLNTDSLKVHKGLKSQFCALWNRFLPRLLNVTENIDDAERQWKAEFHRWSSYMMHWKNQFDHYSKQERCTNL
Description: as §4
Data set [6] in a line: Food intake in free-feeding rats. In kind it is in vivo, rat. To be noted: UCM532 10 mg kg-1 i.p.; UCM597 0.3 mg kg-1 i.p.; data not shown. How it is done:
We recorded food intake in free-feeding rats by using an automated system (Scipro Inc., New York). Rats were acclimated to the test cages for three days prior to the tests. Each test began at the onset of the dark phase and lasted for 24 hours.

A further data set deals with rat cortical neurons. In words: Transport, accumulation and release of non-metabolized [3H]anandamide in cortical neurons. In kind it is cell-based.
The next data set can be described thus: Mouse formalin test. In kind it is in vivo. The note with it: 0.5 mg kg-1 i.p. How it is done: as §1, §2
The nature of the next data set: Catalepsy. The class given is in vivo. To be noted: UCM532 10 mg kg-1 i.p.; UCM597 0.3 mg kg-1 i.p.; data not shown.
Text: as §3

A further data set concerns anandamide transport. In words: [3H]anandamide transport assay in human astrocytoma cells. The note with it: human astrocytoma cells.

Chain of CB2 receptor (P34972 whole entry): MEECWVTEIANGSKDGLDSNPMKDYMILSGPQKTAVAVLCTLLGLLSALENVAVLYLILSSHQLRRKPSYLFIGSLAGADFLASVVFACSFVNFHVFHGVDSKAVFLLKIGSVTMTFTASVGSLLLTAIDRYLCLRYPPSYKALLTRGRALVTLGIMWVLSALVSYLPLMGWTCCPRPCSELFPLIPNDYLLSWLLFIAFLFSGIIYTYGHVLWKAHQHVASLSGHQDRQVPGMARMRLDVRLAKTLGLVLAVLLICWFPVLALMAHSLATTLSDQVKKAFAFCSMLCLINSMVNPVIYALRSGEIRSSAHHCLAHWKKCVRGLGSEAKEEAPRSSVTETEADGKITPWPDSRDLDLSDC
Chain of horse plasma butyryl cholinesterase (P81908 whole entry): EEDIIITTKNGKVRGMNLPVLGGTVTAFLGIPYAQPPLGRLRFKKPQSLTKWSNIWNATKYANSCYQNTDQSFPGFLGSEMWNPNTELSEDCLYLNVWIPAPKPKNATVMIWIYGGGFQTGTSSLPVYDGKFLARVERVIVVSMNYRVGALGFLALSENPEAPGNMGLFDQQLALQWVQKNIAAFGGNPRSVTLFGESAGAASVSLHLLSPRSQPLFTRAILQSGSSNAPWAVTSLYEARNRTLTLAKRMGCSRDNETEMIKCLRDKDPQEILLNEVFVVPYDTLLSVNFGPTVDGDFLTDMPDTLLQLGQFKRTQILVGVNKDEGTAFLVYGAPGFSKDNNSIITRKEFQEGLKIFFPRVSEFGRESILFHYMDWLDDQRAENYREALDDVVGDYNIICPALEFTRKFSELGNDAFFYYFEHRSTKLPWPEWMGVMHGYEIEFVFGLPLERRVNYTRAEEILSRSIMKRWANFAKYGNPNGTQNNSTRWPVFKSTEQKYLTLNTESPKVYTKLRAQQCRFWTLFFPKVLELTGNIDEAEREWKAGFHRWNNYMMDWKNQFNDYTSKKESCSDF
Description for CB2 receptor: as §4
Description for anandamide transport: as §4

Turning to `NC(=O)c1cccc(-c2cccc(OC(=O)NC3CCCCC3)c2)c1` [UCM597, cyclohexylcarbamic acid 3′-carbamoylbiphenyl-3-yl ester], the “effect on butyryl cholinesterase activity (in words)” value in [1] is “did not affect”. Moreover, the “percent time open, elevated zero maze” value in “Elevated zero maze test” was “anxiolytic-like responses”. Also, the “response latencies, hot-plate test” value in “Mouse hot-plate test” was “significantly lengthened”. In data set [2], the “brain content of 2-AG” value is “did not change” and the “brain content of anandamide” value is recorded as “significant elevations”. Also, in data set [2] (n=8-15), the “brain content of oleoylethanolamide” value is 725.3 ± 28.6 pmol g^−1 of tissue and the “brain content of palmitoylethanolamide” value is given as 1324±395 pmol g^−1 of tissue. Besides, the “body temperature / hypothermia, compound alone” value in data set [3] (UCM532 10 mg kg-1 i.p., UCM597 0.3 mg kg-1 i.p.) is “no effect and no”. Also, the “decrease in body temperature elicited by anandamide” value in data set [3] (UCM597 0.3 mg kg-1 i.p. 30 min before anandamide 5 mg kg-1 i.p.) was “intensified and prolonged”. Also, the “effect on binding of a high-affinity ligand to CB2 (in words)” value at CB2 receptor is “no effect”. Also, in data set [4], the “effect on MGL activity (in words)” value was “did not affect”. Moreover, in data set [5], the “effect on acetylcholinesterase activity (in words)” value was “did not affect”. In addition, the “hyperphagia (increased food intake)” value in data set [6] was “no”. Besides, the “accumulation of non-metabolized [3H]anandamide in neurons” value in the data set with rat cortical neurons (4-min incubation, UCM532 3 μM, UCM597 10 nM, AM404 10 μM) is “promote accumulation”. Moreover, the “accumulated [3H]anandamide released back into the medium” value in the data set on rat cortical neurons (UCM597-treated (10 nM) neurons, 15 min in [3H]anandamide-free solution, n=3) is reported as 42.6±8.7%. Also, the “carrier-mediated uptake of [3H]anandamide” value in the data set with rat cortical neurons (rat cortical neurons) was “without reducing”. For the same compound, in “Mouse formalin test”, the “early phase of formalin-evoked pain behavior” value is listed as “attenuated” and the “late phase of formalin-evoked pain behavior” value was “little or no change”. Moreover, in the data set “Catalepsy”, the “catalepsy (rigid immobility)” value is listed as “no catalepsy”. Besides, the “effect on anandamide transport (in words)” value in the data set with anandamide transport is “no effect”.
